# Assay results: patent US10934346B2, “Modified T cell comprising a polynucleotide encoding an inducible stimulating molecule comprising MyD88, CD40 and FKBP12” (priority 2014, dated 2021)
# Entries after “also recorded” stand apart in the source; their conditions may differ.
# How the values were obtained:
# iMC-modified T cells = experiment: Titration of rimiducid on iMC-transduced T cells (T cell activation); type: cell-based, human
# Source text: Cytokine and chemokine production. […] CAR and iMC signaling.
# IC-21 macrophages = experiment: IL-6 ELISA of adenovirus-transduced IC-21 macrophages with AP1903; type: cell-based
# Source text: Inducible chimeric polypeptides of the present application were expressed in various cell types along with a tumor antigen. […] Cell lines included keratinocytes, melanocytes (for example, B16-F10 melanoma), macrophages (for example, IC-21), and fibroblasts (for example, BLK-CL4). FIG. 22 provides a schematic overview of the process by which expression of the chimeric polypeptide, after contacting AP1903, can induce the expression of inflammatory cytokines and chemokines in the transduced cell. FIG. 23 provides a schematic of an assay used to measure PSMA expression and cytokine secretion in transduced cells. The cells were transduced with one of four adenovirus Ad5 vectors: Ad5-iMC-RP-FL; Ad5-iMC-P2A-P-FL; Ad5f35iMC-RP-FL; or Ad5f35iMC-P2A-FL. […] IC-21 macrophages were cultured at 100,000 cells/ml/well in 24-well plates. […] A. Cells were labeled with anti-human PSMA antibody, LNI-17, (Biolegend, San Diego, Calif.) and PSMA expression was analyzed by flow cytometry. […] B. IL-6 was evaluated from the culture supernatants by ELISA (e-Bioscience, San Diego, Calif.). […] A. Cells were labeled with anti-human PSMA antibody, LNI-17, (Biolegend, San Diego, Calif.) and PSMA expression was analyzed by flow cytometry. […] B. IL-6 was evaluated from the culture supernatants by ELISA (e-Bioscience, San Diego, Calif.). […] IL-6 was evaluated from the culture supernatants by ELISA (e-Bioscience, San Diego, Calif.).
# CAPAN-1 GFP+ tumor cells = experiment: Co-culture of iMC-enabled T cells with CAPAN-1-GFP tumor cells; type: cell-based, human; conditions: 10 nM AP1903, 5:1 T cells to tumor cells, 72 hours, RV-172 T cells
# Protocol: FIG. 53 Activation of iMC-transduced T cells with AP1903 induces T cell killing of tumor cells. […] Co-cultures were cultured with or without 10 nM AP1903. After 72 hours, co-cultures were analyzed for GFP^+ tumor cells (X-axis) by flow cytometry.
# FIG. 55: Activation of iMC-transduced T cells with AP1903 induces T cell killing of tumor cells. […] Co-cultures were cultured with or without 10 nM AP1903. After 72 hours, co-cultures were analyzed for GFP^+ tumor cells by flow cytometry (n=2).
# FIG. 56: Activation of iMC-transduced T cells with AP1903 induces T cell killing of tumor cells. […] Co-cultures were cultured with or without 10 nM AP1903.
# 3. Non-transduced T cells or cells transduced with RV-171 (control vector) or RV-172 (iMC vector) were cultured at a 5:1 ratio of T cells to tumor cells in media supplemented with 50 U/ml IL-2, and either with or without 10 nM AP1903. Co-cultures were then incubated at 37° C. and 5% CO2 for 72 hours. Cultures were subsequently analyzed for the presence of GFP^+ tumor cells by fluorescent microscopy and by harvesting the cultures with 0.25% trypsin/EDTA and measuring the frequency of GFP^+CD3^− tumor cells in the culture by flow cytometry.
# Capan-1-GFP tumor cells = experiment: Coculture of CAR/iMC T cells with Capan-1-GFP tumor cells; conditions: 10 nM rimiducid, PSCA.ζ CAR and iMC T cells, 7 days
# Protocol: FIG. 2C) Non-transduced and PSCA.ζ CAR T cells modified with either FKBP or iMC were cocultured with Capan-1-GFP tumor cells at a 1:1 T cell to tumor cell ratio with and without 10 nM rimiducid. Tumor cell and T cell frequency were assessed after 7 days by flow cytometry. Tumor cell frequency was assessed by flow cytometry by measuring CD3^−GFP^+ tumor cells by SSC/GFP gating. Enrichment of T cells coexpressing iMC and CAR were assessed in coculture assays by flow cytometry by measuring CD19-PE and anti-CAR-APC frequency, respectively. FIG. 2D) T cells were subsequently assessed for CD25 expression and measured for T cell proliferation (FIG. 2E) using flow cytometry and cell enumeration.
# FIG. 12B) Non-transduced T cells and T cells transduced with FKBP^+PSCA.ζ, FKBP^+PSCA.28.ζ) or iMC^+PSCA.ζ were cocultured with Capan-1-GFP tumor cells at a 1:1 effector:target ratio for 7 days and analyzed for residual tumor cells (CD3^−GFP^+) by flow cytometry.
# Coculture experiment. […] After 7 days, all residual cells were collected by trypsinization, counted and stained with CD3, CD19 and Fc-specific antibodies and analyzed by flow cytometry. […]
# primary T cells = experiment: Activation of primary T cells with iMyD88, iCD40 or iMC after AP1903 (cytokine ELISA); conditions: iMC
# Protocol: To examine whether MyD88, CD40 or both molecules should be included as endodomains in potential chimeric antigen receptor constructs, four distinct vectors were designed containing the AP1903-binding domains only (Fv′Fv), or genetically fused with MyD88 (iMyD88), CD40 (iCD40) or with both MyD88 and CD40 (iMC) (FIG. 41a). […] The ability of iMyD88, iCD40 or iMC to activate T cells following exposure to AP1903 by measuring IFN-γ and IL-6 production by ELISA was then assayed.
# A set of experiments was performed to examine whether MyD88, CD40 or both components were required for optimum T cell stimulation using the iMC molecule.
smiles,measurement,setting,value
"CC[C@H](C(=O)N1CCCC[C@H]1C(=O)O[C@H](CCc1ccc(OC)c(OC)c1)c1cccc(OCC(=O)NCCNC(=O)COc2cccc([C@@H](CCc3ccc(OC)c(OC)c3)OC(=O)[C@@H]3CCCCN3C(=O)[C@@H](CC)c3cc(OC)c(OC)c(OC)c3)c2)c1)c1cc(OC)c(OC)c(OC)c1 (relative stereo) [rimiducid, 2-Piperidinecarboxylic acid, 1-[(2S)-1-oxo-2-(3,4,5-trimethoxyphenyl)butyl]-, 1,2-ethanediylbis [imino(2-oxo-2,1-ethanediyl)oxy-3,1-phenylene[(1R)-3-(3,4-Dimethoxyphenyl)propylidene]] ester, [2S-[1(R*),2R*[S*[S*[1(R*),2R*]]]]]-(9Cl)]",EC50,"iMC-modified T cells; Homo sapiens, T-cell, FIG. 1b, read-out: EC50, activation of T cells through the iMC switch",~0.12 nM
same,activation of iMC-transduced T cells,iMC-modified T cells; […],dose-dependent activation
same,IL-6 production,IC-21 macrophages; 100 nM AP1903,response to AP1903 by producing IL-6
same,"activation of IL-6, dependence on AP1903",IC-21 macrophages; macrophages,occurred in the presence or absence of AP1903
same,GFP+ tumor cells remaining,CAPAN-1 GFP+ tumor cells,elimination of GFP^+ tumor cells; also recorded: showed very few viable GFP^+ tumor cells
same,Capan-1-GFP tumor cell elimination,Capan-1-GFP tumor cells,further enhanced Capan-1-GFP elimination
same,IL-1 secretion,primary T cells,IL-1a and β are secreted
